Data as given in ChEMBL document CHEMBL5291721, “A preclinical secondary pharmacology resource illuminates target-adverse drug reaction associations of marketed drugs” (Nat Commun, 2023).

Columns and labels:
[1] = biological target: T1, Endothelin receptor type B (Homo sapiens, UniProt P24530)
T1 sequence (P24530 whole entry): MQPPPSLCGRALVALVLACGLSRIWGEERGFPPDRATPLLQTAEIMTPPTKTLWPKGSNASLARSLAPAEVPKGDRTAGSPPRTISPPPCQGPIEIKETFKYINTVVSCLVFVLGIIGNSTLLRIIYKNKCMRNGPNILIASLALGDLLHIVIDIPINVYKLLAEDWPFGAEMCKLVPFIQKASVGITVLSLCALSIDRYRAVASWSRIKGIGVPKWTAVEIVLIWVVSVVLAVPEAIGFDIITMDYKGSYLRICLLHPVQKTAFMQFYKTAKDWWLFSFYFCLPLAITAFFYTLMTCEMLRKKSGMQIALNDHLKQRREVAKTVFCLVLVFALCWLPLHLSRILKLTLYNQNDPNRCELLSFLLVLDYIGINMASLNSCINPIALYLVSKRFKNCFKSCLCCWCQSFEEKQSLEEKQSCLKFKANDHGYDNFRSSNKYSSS

D(1A) dopamine receptor = D(1A) dopamine receptor (Homo sapiens, UniProt P21728)
Sequence of D(1A) dopamine receptor (P21728 whole entry): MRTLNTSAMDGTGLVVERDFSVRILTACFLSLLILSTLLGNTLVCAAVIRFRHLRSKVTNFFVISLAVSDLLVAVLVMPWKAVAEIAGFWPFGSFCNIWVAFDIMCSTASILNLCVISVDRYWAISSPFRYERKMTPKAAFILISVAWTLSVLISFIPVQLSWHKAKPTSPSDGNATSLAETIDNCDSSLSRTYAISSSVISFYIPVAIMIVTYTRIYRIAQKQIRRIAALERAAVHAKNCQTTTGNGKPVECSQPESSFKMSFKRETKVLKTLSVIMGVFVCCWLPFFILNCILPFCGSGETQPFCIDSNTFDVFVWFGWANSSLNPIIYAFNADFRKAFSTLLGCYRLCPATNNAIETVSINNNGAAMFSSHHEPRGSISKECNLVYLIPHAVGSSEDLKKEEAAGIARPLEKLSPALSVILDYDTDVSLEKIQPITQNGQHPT

[2] = biological target: T2, Corticotropin-releasing factor receptor 1 (Homo sapiens, UniProt P34998)
T2 sequence (P34998 whole entry): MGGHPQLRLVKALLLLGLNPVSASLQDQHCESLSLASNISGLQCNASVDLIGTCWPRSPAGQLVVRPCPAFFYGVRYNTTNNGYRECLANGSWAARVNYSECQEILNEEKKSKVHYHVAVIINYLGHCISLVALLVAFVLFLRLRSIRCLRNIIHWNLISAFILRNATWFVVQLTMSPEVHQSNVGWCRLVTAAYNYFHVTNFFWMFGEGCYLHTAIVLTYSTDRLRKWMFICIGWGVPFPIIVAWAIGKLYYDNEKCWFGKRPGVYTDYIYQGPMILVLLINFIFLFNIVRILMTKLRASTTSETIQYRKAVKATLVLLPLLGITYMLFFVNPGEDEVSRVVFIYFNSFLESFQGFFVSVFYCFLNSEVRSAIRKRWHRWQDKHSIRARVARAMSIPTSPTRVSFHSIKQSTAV

[3] = biological target: Synaptic vesicular amine transporter (Rattus norvegicus, UniProt Q01827); format: functional
Sequence of Synaptic vesicular amine transporter (Q01827 whole entry): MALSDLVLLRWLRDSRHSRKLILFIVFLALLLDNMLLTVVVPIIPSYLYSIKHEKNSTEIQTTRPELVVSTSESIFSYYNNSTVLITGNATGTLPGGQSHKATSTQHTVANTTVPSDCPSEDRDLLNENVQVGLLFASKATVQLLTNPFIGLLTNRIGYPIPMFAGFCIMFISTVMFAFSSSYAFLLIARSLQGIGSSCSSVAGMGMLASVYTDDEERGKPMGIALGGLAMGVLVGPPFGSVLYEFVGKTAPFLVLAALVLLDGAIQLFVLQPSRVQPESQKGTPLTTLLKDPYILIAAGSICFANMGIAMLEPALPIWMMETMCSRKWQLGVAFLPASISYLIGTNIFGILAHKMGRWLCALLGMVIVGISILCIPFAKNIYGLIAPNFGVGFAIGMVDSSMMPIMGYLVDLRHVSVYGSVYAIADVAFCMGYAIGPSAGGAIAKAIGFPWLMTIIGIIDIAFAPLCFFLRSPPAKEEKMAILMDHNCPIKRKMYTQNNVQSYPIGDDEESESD

[4] = biological target: T3, Peroxisome proliferator-activated receptor gamma (Homo sapiens, UniProt P37231); format: functional
T3 sequence (P37231 whole entry): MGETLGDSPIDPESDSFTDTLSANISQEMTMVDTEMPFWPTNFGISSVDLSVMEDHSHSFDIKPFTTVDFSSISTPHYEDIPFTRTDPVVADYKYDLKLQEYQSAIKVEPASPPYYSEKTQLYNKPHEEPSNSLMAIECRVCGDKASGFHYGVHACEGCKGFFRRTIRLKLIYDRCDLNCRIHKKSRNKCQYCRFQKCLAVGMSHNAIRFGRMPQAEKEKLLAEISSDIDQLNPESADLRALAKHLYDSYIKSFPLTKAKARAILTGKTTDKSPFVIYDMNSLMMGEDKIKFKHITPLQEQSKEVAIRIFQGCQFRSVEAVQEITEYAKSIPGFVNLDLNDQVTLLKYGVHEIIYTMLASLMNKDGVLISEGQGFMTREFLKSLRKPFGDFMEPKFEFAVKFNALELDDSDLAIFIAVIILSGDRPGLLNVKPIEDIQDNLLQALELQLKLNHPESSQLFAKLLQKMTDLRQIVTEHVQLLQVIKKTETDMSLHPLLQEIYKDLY

[5] = biological target: Gamma-aminobutyric acid receptor subunit alpha-1/alpha-2/beta-2/gamma-2 (Homo sapiens, UniProt P14867+P18507+P47869+P47870); format: functional, cell-based
Sequence of Gamma-aminobutyric acid receptor subunit alpha-1/alpha-2/beta-2/gamma-2 (P14867 whole entry): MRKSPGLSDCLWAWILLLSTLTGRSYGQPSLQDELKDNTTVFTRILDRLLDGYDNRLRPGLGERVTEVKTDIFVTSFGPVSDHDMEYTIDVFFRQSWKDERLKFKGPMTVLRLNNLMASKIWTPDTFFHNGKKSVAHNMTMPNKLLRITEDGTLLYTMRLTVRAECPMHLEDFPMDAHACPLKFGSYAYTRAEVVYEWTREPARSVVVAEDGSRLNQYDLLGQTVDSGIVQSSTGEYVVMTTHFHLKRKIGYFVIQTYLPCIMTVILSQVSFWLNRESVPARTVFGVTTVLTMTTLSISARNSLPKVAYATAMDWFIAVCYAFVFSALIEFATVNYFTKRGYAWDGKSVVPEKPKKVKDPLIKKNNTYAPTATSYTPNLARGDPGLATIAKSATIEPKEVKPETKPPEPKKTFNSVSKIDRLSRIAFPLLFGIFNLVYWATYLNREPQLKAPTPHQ
Sequence of Gamma-aminobutyric acid receptor subunit alpha-1/alpha-2/beta-2/gamma-2 (P47870 whole entry): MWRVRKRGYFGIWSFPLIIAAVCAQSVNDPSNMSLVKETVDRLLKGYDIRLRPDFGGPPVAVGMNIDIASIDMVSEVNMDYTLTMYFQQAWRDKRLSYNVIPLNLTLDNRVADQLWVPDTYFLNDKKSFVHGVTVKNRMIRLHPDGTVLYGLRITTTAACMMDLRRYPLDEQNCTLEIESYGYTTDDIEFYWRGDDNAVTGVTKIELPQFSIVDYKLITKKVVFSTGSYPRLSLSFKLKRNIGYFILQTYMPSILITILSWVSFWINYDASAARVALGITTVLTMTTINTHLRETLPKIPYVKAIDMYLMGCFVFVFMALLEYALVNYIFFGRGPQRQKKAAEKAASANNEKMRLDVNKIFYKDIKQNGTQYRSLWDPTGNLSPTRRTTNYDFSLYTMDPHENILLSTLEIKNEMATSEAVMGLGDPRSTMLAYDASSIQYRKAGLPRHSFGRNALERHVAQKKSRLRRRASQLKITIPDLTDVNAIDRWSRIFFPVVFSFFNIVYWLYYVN
Sequence of Gamma-aminobutyric acid receptor subunit alpha-1/alpha-2/beta-2/gamma-2 (P18507 whole entry): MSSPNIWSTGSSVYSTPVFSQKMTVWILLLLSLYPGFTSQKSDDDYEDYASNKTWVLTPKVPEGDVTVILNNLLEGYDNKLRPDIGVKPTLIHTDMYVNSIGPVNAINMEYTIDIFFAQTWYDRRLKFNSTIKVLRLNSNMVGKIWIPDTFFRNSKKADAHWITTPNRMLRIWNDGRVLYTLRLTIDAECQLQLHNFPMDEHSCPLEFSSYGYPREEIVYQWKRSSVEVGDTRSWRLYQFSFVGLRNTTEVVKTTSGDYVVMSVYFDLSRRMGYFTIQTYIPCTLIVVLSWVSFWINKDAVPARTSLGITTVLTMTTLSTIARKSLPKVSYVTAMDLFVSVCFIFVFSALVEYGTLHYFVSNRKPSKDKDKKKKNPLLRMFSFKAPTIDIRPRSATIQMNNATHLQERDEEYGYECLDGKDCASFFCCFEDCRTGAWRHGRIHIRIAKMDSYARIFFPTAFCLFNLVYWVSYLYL
Sequence of Gamma-aminobutyric acid receptor subunit alpha-1/alpha-2/beta-2/gamma-2 (P47869 whole entry): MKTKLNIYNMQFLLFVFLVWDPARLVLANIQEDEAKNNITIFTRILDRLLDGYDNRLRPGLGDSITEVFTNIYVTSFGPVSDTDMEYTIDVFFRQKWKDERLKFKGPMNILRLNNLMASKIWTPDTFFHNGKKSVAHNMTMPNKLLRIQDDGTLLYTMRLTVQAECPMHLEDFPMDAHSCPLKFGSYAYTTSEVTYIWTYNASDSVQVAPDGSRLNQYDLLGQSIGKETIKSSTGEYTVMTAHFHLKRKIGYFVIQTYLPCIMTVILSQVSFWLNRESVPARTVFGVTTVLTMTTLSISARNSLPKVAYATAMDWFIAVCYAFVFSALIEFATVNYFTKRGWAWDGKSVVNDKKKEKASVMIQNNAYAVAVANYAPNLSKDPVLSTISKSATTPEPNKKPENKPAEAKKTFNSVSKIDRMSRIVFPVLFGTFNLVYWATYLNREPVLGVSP

[6] = biological target: T3, Peroxisome proliferator-activated receptor gamma; format: functional; remark: listed apart in the source
Note: assay procedure not described here.

| AC50 [4] | AC50 [5] | AC50 [6] | Structure (SMILES) | AC50 [1] | AC50 (D(1A) dopamine receptor) | AC50 [2] | AC50 [3] |
| --- | --- | --- | --- | --- | --- | --- | --- |
| – | – | – | CCN(CC)CCNC(=O)c1cc(Cl)c(N)cc1OC [METOCLOPRAMIDE] | > 30 µM | > 10 µM | > 30 µM | – |
| – | – | – | CCOC(=O)[C@H](CCc1ccccc1)N[C@@H](C)C(=O)N1CCC[C@H]1C(=O)O | > 30 µM | > 10 µM | > 30 µM | – |
| – | – | – | CCc1ccc(CCOc2ccc(CC3SC(=O)NC3=O)cc2)nc1 (stereo not drawn) [PIOGLITAZONE] | > 30 µM | > 10 µM | > 30 µM | – |
| – | – | – | CN1C(=O)CC(C)(c2ccccc2)C1=O (stereo not drawn) [METHSUXIMIDE] | – | – | – | > 30 µM |
| – | – | – | CC(=O)OC[C@H]1O[C@@H](n2ccc(=O)[nH]c2=O)[C@H](OC(C)=O)[C@@H]1OC(C)=O [URIDINE TRIACETATE] | – | – | – | > 30 µM |
| – | – | – | NC(N)=Nc1nc(CSCCC(N)=NS(N)(=O)=O)cs1 [FAMOTIDINE] | > 30 µM | > 10 µM | > 30 µM | – |
| – | – | – | CCc1nn(CCCN2CCN(c3cccc(Cl)c3)CC2)c(=O)n1CCOc1ccccc1 [NEFAZODONE] | > 30 µM | – | > 30 µM | – |
| – | – | – | O=C1c2c(O)c(=O)ccn2N([C@@H]2c3ccccc3SCc3c2ccc(F)c3F)[C@@H]2COCCN12 [BALOXAVIR] | – | – | – | 22 µM |
| – | – | – | OC[C@@H](O)[C@@H](O)[C@H](O)[C@H](O)CO [MANNITOL] | – | – | – | > 30 µM |
| – | – | – | NS(=O)(=O)c1cc2c(cc1Cl)NCNS2(=O)=O [HYDROCHLOROTHIAZIDE] | > 30 µM | > 10 µM | > 30 µM | – |
| – | – | – | NC(=O)c1cnccn1 [PYRAZINAMIDE] | > 30 µM | > 10 µM | > 30 µM | – |
| – | – | – | CS(=O)(=O)c1ccc([C@@H](O)[C@@H](CO)NC(=O)C(Cl)Cl)cc1 [THIAMPHENICOL] | – | – | – | > 30 µM |
| – | – | – | CC(C(=O)O)c1ccc(N2CC=CC2)c(Cl)c1 (stereo not drawn) [PIRPROFEN] | > 30 µM | > 10 µM | > 30 µM | – |
| > 30 µM | – | > 30 µM | Cc1cccc(C)c1OCC(C)N (stereo not drawn) [MEXILETINE] | – | – | – | – |
| – | – | – | CCOC(=O)c1ccc(O)cc1 [ETHYLPARABEN] | – | – | – | 22 µM |
| – | > 30 µM | – | O=C(CCCCCCC(=O)Nc1ccccc1)NO [VORINOSTAT] | > 10 µM | > 10 µM | – | – |
| – | – | – | CC(C)NCC(O)COc1ccc(COCCOC(C)C)cc1 (stereo not drawn) [BISOPROLOL] | > 30 µM | > 10 µM | > 30 µM | – |
| – | – | – | COc1cc(Nc2c(C#N)cnc3cc(OCCCN4CCN(C)CC4)c(OC)cc23)c(Cl)cc1Cl [BOSUTINIB] | > 30 µM | > 10 µM | > 30 µM | – |
| – | – | – | Nc1nc(N)c2nc(-c3ccccc3)c(N)nc2n1 | > 30 µM | > 10 µM | > 30 µM | – |
| – | – | – | Oc1ncnc2[nH]ncc12 [ALLOPURINOL] | > 30 µM | > 10 µM | > 30 µM | – |
| > 30 µM | > 30 µM | > 30 µM | NC(=O)c1ncn([C@@H]2O[C@H](CO)[C@@H](O)[C@H]2O)c1O [MIZORIBINE] | – | – | – | – |
| – | – | – | C[C@H]1O[C@H](O[C@H]2[C@H](O)[C@@H](O)[C@@H](O[C@H]3[C@H](O)[C@@H](O)C(O)O[C@@H]3CO)O[C@@H]2CO)[C@H](O)[C@@H](O)[C@@H]1N[C@H]1C=C(CO)[C@@H](O)[C@H](O)[C@H]1O (stereo partly drawn) [ACARBOSE] | > 30 µM | > 10 µM | > 30 µM | – |
| – | – | – | COc1cc2c(cc1OC)C(=O)C(CC1CCN(Cc3ccccc3)CC1)C2 (stereo not drawn) [DONEPEZIL] | > 30 µM | > 10 µM | > 30 µM | – |
| > 30 µM | > 30 µM | > 30 µM | N[C@@H](C(=O)N[C@@H]1C(=O)N2C(C(=O)O)=C(Cl)CS[C@H]12)c1ccccc1 [CEFACLOR ANHYDROUS] | – | – | – | – |

| Structure (SMILES) | AC50 [4] | AC50 [5] | AC50 [6] | AC50 [1] | AC50 (D(1A) dopamine receptor) | AC50 [2] | AC50 [3] |
| --- | --- | --- | --- | --- | --- | --- | --- |
| OCCN1CCN(CCCN2c3ccccc3C=Cc3ccccc32)CC1 [OPIPRAMOL] | > 30 µM | > 30 µM | > 30 µM | – | 2.24 µM | – | – |
| COC(=O)[C@@H]1CC2=CC(=O)CC[C@]2(C)[C@@]23O[C@@H]2C[C@@]2(C)[C@@H](CC[C@@]24CCC(=O)O4)[C@H]13 [EPLERENONE] | > 30 µM | > 30 µM | > 30 µM | > 30 µM | > 10 µM | > 30 µM | – |
